{"source": "patent US12123017B2", "about": "“Composition and method for cultivation, expansion, preservation and/or cell pretreatment” (REGENERO S.A., priority 2017, dated 2024)", "test_system": "Umbilical cord derived mesenchymal stem cells", "experiment": "Biopreservation of MSCs at 4° C. for three days (viability by trypan blue, adhesion, proliferation, migration)", "assay_type": "cell-based", "conditions": "0.1 μM in CBS, P<0.01", "protocol": "Approximately 200,000 umbilical cord derived mesenchymal stem cells were stored in 200 μl of commercial biopreservation solution (CBS) as a control and 200 μl of CBS supplemented with the medium supplement of the invention. The samples were kept at 4° C. for three days. Cells were resuspended in DMEM base, and viability was assessed by trypan blue exclusion assay. […] Cell adhesion was evaluated 24 hours after cells were seeded in 10 mm plates. […] Finally, the cells preserved with CBS proliferated less than those preserved in CBS with pterostilbene (FIG. 4D). Therefore, the solution of the invention improves the functionality of the cells after 3 days of biopreservation."}
{"smiles": "COc1cc(/C=C/c2ccc(O)cc2)cc(OC)c1", "note": "[Pterostilbene]", "values": [{"measurement": "cell viability better compared to CBS alone", "result": "approximately 10%"}]}
